From US8916540B2, “Antibiotic compositions and related screening methods” (Academia Sinica, priority 2008, dated 2014)

Columns and labels:
Klebsiella pneumoniae [1] = assay: Minimal inhibitory concentration (MIC) determination; format: cell-based
Neisseria gonorrhoeae = conditions: literature citation 28; cited from earlier work
Salmonella enterica [2] = conditions: literature citation 38; cited from earlier work
Citrobacter freundii = conditions: literature citation 28; cited from earlier work
Shigella flexneri [3] = conditions: literature citation 28; cited from earlier work
[4] = biological target: PBP1b from Citrobacter freundii; assay: SPR moenomycin binding to immobilized full-length PBP; conditions: steady-state affinity, average values, read-out: SPR_KD
Escherichia coli = conditions: literature citation 28; cited from earlier work
Clostridium difficile [5] = conditions: literature citation 30; cited from earlier work
Shigella flexneri [6] = assay: Minimal inhibitory concentration (MIC) determination; format: cell-based
[7] = biological target: T1, E. coli PBP1b TG+TP (residues 88-844) (Escherichia coli, UniProt P02919); assay: SPR moenomycin binding to truncated PBP1b variant; conditions: PBP without the transmembrane domain
T1 construct: TG+TP (residues 88-844); His tag (implied by nickel chelation chromatography); made in house; host or cells: E. coli (pET vectors)
T1 sequence (P02919 88-844): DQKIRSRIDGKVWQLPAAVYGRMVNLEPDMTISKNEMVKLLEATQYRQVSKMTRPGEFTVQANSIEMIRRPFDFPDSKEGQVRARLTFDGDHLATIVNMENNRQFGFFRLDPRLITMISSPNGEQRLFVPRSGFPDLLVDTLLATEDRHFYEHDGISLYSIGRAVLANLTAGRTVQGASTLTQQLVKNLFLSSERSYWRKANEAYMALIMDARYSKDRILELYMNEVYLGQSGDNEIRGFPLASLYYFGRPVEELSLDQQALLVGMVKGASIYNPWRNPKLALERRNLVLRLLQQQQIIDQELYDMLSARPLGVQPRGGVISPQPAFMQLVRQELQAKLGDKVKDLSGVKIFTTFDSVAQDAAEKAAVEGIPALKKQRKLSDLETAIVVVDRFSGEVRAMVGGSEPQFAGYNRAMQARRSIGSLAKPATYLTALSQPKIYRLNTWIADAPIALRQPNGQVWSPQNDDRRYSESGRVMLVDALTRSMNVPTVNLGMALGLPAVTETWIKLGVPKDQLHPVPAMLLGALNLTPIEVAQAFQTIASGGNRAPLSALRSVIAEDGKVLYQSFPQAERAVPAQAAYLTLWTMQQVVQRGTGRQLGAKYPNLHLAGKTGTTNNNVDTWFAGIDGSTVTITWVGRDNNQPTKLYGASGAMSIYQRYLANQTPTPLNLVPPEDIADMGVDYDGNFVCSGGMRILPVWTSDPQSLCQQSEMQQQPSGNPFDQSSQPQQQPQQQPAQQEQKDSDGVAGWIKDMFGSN
Text: . Five E. coli PBP1b variants were expressed and purified: 1) full-length protein containing transmembrane, transglycosylase and transpeptidase domains (TM+TG+TP), 2) TG+TP, 3) TM+TG, 4) TG, and 5) TP (FIG. 1B).
. FIG. 1(B) is a schematic representation of the PBP variants used for moenomycin binding studies. The full-length PBP (TM+TG+TP) contains amino acid residues 1-844 of the E. coli PBP1b P02919. TG+TP (residues 88-844), TM+TG (residues 1-409), TG (residues 195-409), and TP (residues 444-736) are truncated variants with the part of the full-length PBP1b. The moenomycin binding constant (KD) for these variants were determined using SPR.
After immobilization of the target proteins on the sensor chip, different concentrations of moenomycin were passed through the surface and the binding affinities were determined. […].
Purified PBP and its variants were immobilized onto CM3 chip (GE healthcare, Uppsala, Sweden) to about 1,500˜2,000 RU via amine-coupling method. […]. Immobilization and data collection were performed with BIAcore T100 (GE Healthcare, Uppsala, Sweden) at 25° C.

Pseudomonas aeruginosa = assay: Minimal inhibitory concentration (MIC) determination; format: cell-based
Klebsiella pneumoniae [8] = conditions: literature citation 28; cited from earlier work
Enterococcus faecalis = conditions: literature citation 31; cited from earlier work
Salmonella enterica [9] = assay: Minimal inhibitory concentration (MIC) determination; format: cell-based
Clostridium difficile [10] = assay: as above; format: cell-based
Bacillus subtilis = conditions: literature citation 30; cited from earlier work
[11] = biological target: PBP2a from Enterococcus faecalis; assay: SPR moenomycin binding to immobilized full-length PBP; conditions: steady-state affinity, average values, read-out: SPR_KD
Staphylococcus aureus = conditions: literature citation 10; cited from earlier work

## Moenomycin A [Compound 1]
Klebsiella pneumoniae [1]
  MIC: 80 µM
Neisseria gonorrhoeae
  Reported values MIC: 1.69 µM
Salmonella enterica [2]
  Reported values MIC: 13.75 to 110 µM
Citrobacter freundii
  Reported values MIC: 352 µM
Shigella flexneri [3]
  Reported values MIC: 27.5 to 110 µM
[4]
  Kd: 728 nM
Escherichia coli
  Reported values MIC: 55 to 110 µM
Clostridium difficile [5]
  Reported values MIC: 220 to 440 µM
Shigella flexneri [6]
  MIC: 40 µM
[7]
  moenomycin binding activity of TG+TP variant relative to full-length PBP1b (fold lower): about 5 fold
[7]; listed as Moe A
  moenomycin binding activity of TG+TP variant relative to full-length PBP1b (fold lower): decreased five-fold
Pseudomonas aeruginosa
  MIC: 40 µM
Klebsiella pneumoniae [8]
  Reported values MIC: 13.75 to 27.5 µM
Enterococcus faecalis
  Reported values MIC: 0.1 µM
Salmonella enterica [9]
  MIC: 160 µM
Clostridium difficile [10]
  MIC: >160 µM
Bacillus subtilis
  Reported values MIC: 0.07 to 0.43 µM
[11]
  Kd: 619 nM
Staphylococcus aureus
  Reported values MIC: 0.02 to 0.12 µM
